{"source": "patent US20080319000A1", "about": "“Use of 3,1IB-Cis-Dihydrotetrabenazine for the Treatment of Symptoms of Huntingtons Disease” (CAMBRIDGE LABORATORIES (IRELAND) LIMITED, priority 2005, published 2008)", "key": {"[1]": {"target": "serotonin transporter protein SERT (Homo sapiens, UniProt P31645)", "sequence (P31645 whole entry)": "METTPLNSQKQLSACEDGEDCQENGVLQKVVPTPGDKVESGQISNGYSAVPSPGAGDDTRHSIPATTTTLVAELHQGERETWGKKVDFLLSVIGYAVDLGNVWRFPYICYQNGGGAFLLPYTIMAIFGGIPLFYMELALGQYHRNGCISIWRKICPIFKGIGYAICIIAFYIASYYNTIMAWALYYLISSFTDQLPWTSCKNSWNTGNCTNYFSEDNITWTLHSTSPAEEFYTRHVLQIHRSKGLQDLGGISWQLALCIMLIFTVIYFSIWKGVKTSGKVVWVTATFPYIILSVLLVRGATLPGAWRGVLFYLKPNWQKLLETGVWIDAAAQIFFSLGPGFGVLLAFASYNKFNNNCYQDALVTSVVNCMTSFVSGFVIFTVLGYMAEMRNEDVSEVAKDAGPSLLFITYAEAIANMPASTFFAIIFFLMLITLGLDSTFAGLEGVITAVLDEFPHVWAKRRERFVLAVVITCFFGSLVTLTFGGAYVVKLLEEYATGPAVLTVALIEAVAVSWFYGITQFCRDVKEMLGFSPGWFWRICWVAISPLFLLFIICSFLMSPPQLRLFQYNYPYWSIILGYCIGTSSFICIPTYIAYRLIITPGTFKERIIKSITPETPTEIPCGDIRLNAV", "assay": "Serotonin transporter SERT inhibition", "assay_type": "binding"}, "[2]": {"tested_on": "B6CBA-Tg(HDexon1)62Gpb/1J transgenic (R6/2) mice", "assay": "Rotarod test in transgenic mice model of Huntington's disease", "assay_type": "in vivo", "conditions": "5 mg/kg i.p. Day 0 to Day 3", "procedure": "B6CBA-Tg(HDexon1)62Gpb/1J transgenic (R6/2) mice are transgenic for the 5-end of the human HD gene carrying (CAG) 115-(CAG) 150 repeat expansions. […] These symptoms appear between 6 and 8 weeks of age. Female B6CBa-Tg(HDexon1)62Gpb/1J transgenic mice (Jackson Laboratory, USA) were housed 5 per cage in an enriched environment under a light-dark cycle of 12 h-12 h (light on at 7.00 am, off at 7.00 pm) at a room temperature of 21±2° C., with 50±15% humidity. The mice had access to commercial mouse chow (mouse/rate breeding, ref. 9341 Provimi Kliba, Switzerland) and tap water. […] Two consecutive days before the first administration, animals were trained to use the rotarod: they were placed on an accelerating rotarod (Ugo Basile, Italy) for a maximum time of 450 seconds. They went through 2 training sessions starting with 4 rpm for 300 seconds, then staying at 40 rpm for 150 seconds. The two training sessions were given at 1 hour intervals. On the days of testing, each animal was subjected to one trial under the conditions described above. Each trial was terminated when the mouse fell or when it had stayed on the rotarod for 450 seconds. The mice were returned to their home cages after testing. Group 1: hemizygote Transgenic B6CBA-Tg(HDexon 1)62Gpb/1J mice treated with vehicle i.p. once a day for 4 days (from day 0 to day 3) Group 2: hemizygote Transgenic B6CBA-Tg(HDexon 1)62Gpb/1J mice treated with 5 mg/kg i.p. of test item once a day for 4 days (from day 0 to day 3) […] • Test item administration • Simplified Irwin test, 40 minutes after administration • Rotarod test, immediately after the simplified Irwin test • Test item administration • Simplified Irwin test, 40 min after administration • Rotarod test, immediately after simplified #Irwin test Simplified Irwin scores were analysed using non-parametric Mann-Whitney's U test. Locomotor activity data were analysed using Dunnett's t-test. Rotarod scores were analysed using the non-parametric Mann-Whitney's U-test. Statistical analyses were performed using the software Statview SE^+graphics software, Brain Power."}}, "data": [{"smiles": "COc1cc2c(cc1OC)[C@H]1C[C@H](O)[C@@H](CC(C)C)CN1CC2", "note": "(single isomer, unassigned) [Isomer B]", "values": [{"measurement": "inhibition of the serotonin transporter protein SERT", "setting": "[1]", "value": "potent inhibitors"}, {"measurement": "Measured latencies to fall from Rotarod", "setting": "[2]; Day 0, prior to 1st administration", "value": "68.4 ± 17.7", "unit": "s"}, {"measurement": "Measured latencies to fall from Rotarod", "setting": "[2]; Day 1", "value": "91.4 ± 18.1", "unit": "s"}, {"measurement": "Measured latencies to fall from Rotarod", "setting": "[2]; Day 3", "value": "59.4 ± 11.2", "unit": "s"}, {"measurement": "Measured latencies to fall from Rotarod", "setting": "[2]; Day 9", "value": "29.0 ± 12.1", "unit": "s"}, {"measurement": "Measured latencies to fall from Rotarod", "setting": "[2]; Day 17", "value": "30.0 ± 11.0", "unit": "s"}, {"measurement": "Measured latencies to fall from Rotarod", "setting": "[2]; Day 21", "value": "22.1 ± 7.3", "unit": "s"}, {"measurement": "Measured latencies to fall from Rotarod", "setting": "[2]; Day 24", "value": "14.8 ± 4.3", "unit": "s"}, {"measurement": "Measured latencies to fall from Rotarod", "setting": "[2]; Day 27", "value": "15.8 ± 5.2", "unit": "s"}, {"measurement": "Measured latencies to fall from Rotarod", "setting": "[2]; Day 31", "value": "7.8 ± 2.4", "unit": "s"}]}]}
